Here are results for 6 compounds from US11117874B2, “Certain (2S)-N-[(1S)-1-cyano-2-phenylethyl]-1,4-oxazepane-2-carboxamides as dipeptidyl peptidase 1 inhibitors” (AstraZeneca AB, priority 2014, dated 2021).

Structures are written as SMILES.

One data set in a line: Test B: In-Vitro Competitive Aortic Tissue Binding Assay. As to conditions: 100 μM compound pre-incubated overnight at 37° C. with rat aortic homogenate, competition with 100 μM [14C]4-amino-N-[(1S)-1-cyano-2-(4′-cyanobiphenyl-4-yl)ethyl]tetrahydro-2H-pyran-4-carboxamide; four categories. Here is the method:
To assist the design of DPP1 inhibitors with a decreased risk of binding to elastin rich tissues, such as the aorta, the in-vitro competitive aortic binding assay disclosed below (Test B) was developed to facilitate the selection process.
Test B: In-Vitro Competitive Aortic Tissue Binding Assay
Aortic homogenate was prepared from the thoracic aortae of Han Wistar rats. Freshly isolated to thoracic aortae were frozen, and later thawed and stripped of non-elastic material.
Homogenate concentration was adjusted to 30 mg/mL in Puck's saline, and aliquots were stored at −80° C. until use. Positive and negative control compounds and test compounds were made up to 100 mM in DMSO, and added to 1 mL aliquots of aortic homogenate in Puck's saline for a final concentration of 100 μM. Homogenate samples were pre-incubated with test compounds at 37° C., rotating, overnight. [^14C]4-Amino-N-[(1S)-1-cyano-2-(4′-cyanobiphenyl-4-yl)ethyl]tetrahydro-2H-pyran-4-carboxamide was then added to all samples to a final concentration of 100 μM, and samples were incubated at 37° C., rotating, for a further 2 h. Protein was precipitated from each sample by the addition of 10 mL acetone, pre-chilled to −20° C. Samples were left overnight at −20° C. to allow complete precipitation. Precipitate was pelleted by centrifugation at 4,500×g at 4° C. for 20 min, an aliquot of supernatant was removed for analysis, and the remainder of the supernatant discarded. Precipitate was washed by resuspension in 10 mL 80% methanol in distilled water, and re-pelleted by centrifugation at 4,500×g at 4° C. for 20 min. […] After final wash, precipitate was air-dried, and dissolved overnight in 1 mL NCSII Tissue Solubiliser. 1 mL aliquots of supernatants were added to 5 mL Ultima Gold scintillation fluid (Perkin Elmer, Mass., U.S.A.), and 1 mL solubilised pellets were added to 5 mL Hionic-Fluor scintillation fluid (Perkin Elmer, Mass., U.S.A.). Radioactivity of samples was determined on a Beckman LS6500 multipurpose scintillation counter (Beckman Coulter, Ind., U.S.A.). […] Duplicate samples were tested for each compound on each experimental occasion, and at least two experiments were run for each test compound. […] 1-way ANOVA and to Bonferroni's multiple comparison tests were performed to calculate significance of differences from vehicle control.
As to `N#Cc1ccc(-c2ccc(C[C@@H](C#N)NC(=O)C3(N)CCOCC3)cc2)cc1` [WO2010/128324 (Ex. 3), 4-amino-N-[(1S)-1-cyano-2-(4′-cyanobiphenyl-4-yl)ethyl]tetrahydro-2H-pyran-4-carboxamide], the “Aortic Tissue Binding” value is “Strong binder (reference)”.

For `Cn1c(=O)oc2ccc(-c3ccc(C[C@@H](C#N)NC(=O)C4(N)CCOCC4)cc3)cc21` [WO2010/128324 (Example 17)], the “Aortic Tissue Binding” value is “Strong binder”.

Turning to `N#Cc1ccc(-c2ccc(C[C@@H](C#N)NC(=O)[C@@H]3CCCCN3)cc2)cc1` [WO2009/074829 (Example 24)], the “Aortic Tissue Binding” value is reported as “Binder”.

In the case of `Cn1c(=O)oc2ccc(-c3ccc(C[C@@H](C#N)NC(=O)[C@@H]4CNCCCO4)cc3)cc21` [Example 2, (2S)—N-{(1S)-1-Cyano-2-[4-(3-methyl-2-oxo-2,3-dihydro-1,3-benzoxazol-5-yl)phenyl]ethyl}-1,4-oxazepane-2-carboxamide], the “Aortic Tissue Binding” value was “No binder”.

In the case of `Cn1c(=O)oc2ccc(-c3ccc(C[C@@H](C#N)NC(=O)[C@@H]4CCCCN4)cc3)cc21` [WO2009/074829 (Example 96)], the “Aortic Tissue Binding” value is given as “Medium binder”.

Test in another data set: not given
As to conditions: described in literature (Schmidt et al. 1984); cited from earlier work.
Regarding `CC(c1ccc(Cl)c(Cl)c1)N1N=C(N)CC1=O` (stereo not drawn) [muzolimine], the “retention in the aorta in QWBA studies” value is “retained selectively in the aorta”.
